Measured values as given in ChEMBL document CHEMBL5154799, “Discovery of a Novel Stilbene Derivative as a Microtubule Targeting Agent Capable of Inducing Cell Ferroptosis” (J Med Chem, 2022).
Where a name gives a salt, the structure may show the parent alone. Activity calls are given as the source filed them. The rule behind the calls is not given here.

Tests used:
[1] = Resistance index, ratio of IC50 for antiproliferative activity against human vincristine-resistant HCT-8/VCR cells to IC50 for antiproliferative activity against HCT-8 cells; assay type: functional
[2] = system: A549; assay: Antiproliferative activity against human A549 cells assessed as cell viability incubated for 48 hrs by MTT assay; assay type: functional, cell-based; details: A549, 48 h
[3] = system: A2780; assay: Antiproliferative activity against human A2780 cells assessed as cell viability incubated for 48 hrs by MTT assay; assay type: functional, cell-based; details: A2780, 48 h
[4] = system: HCT-8; assay: Antiproliferative activity against human HCT-8 cells assessed as cell viability incubated for 48 hrs by MTT assay; assay type: functional, cell-based; details: HCT-8, 48 h
[5] = system: A549; assay: Antiproliferative activity against human adriamycin-resistant A549/ADR cells assessed as cell viability incubated for 48 hrs by MTT assay; assay type: functional, cell-based; details: A549, 48 h
[6] = system: A549; assay: Resistance index, ratio of IC50 for antiproliferative activity against human adriamycin-resistant A549/ADR cells to IC50 for antiproliferative activity against human A549 cells; assay type: functional
[7] = system: HCT-8; assay: Antiproliferative activity against human vincristine-resistant HCT-8/VCR cells assessed as cell viability incubated for 48 hrs by MTT assay; assay type: functional, cell-based; details: HCT-8, 48 h
[8] = system: A2780; assay: Antiproliferative activity against human paclitaxel-resistant A2780/TAX cells assessed as cell viability incubated for 48 hrs by MTT assay; assay type: functional, cell-based; details: A2780, 48 h
[9] = Resistance index, ratio of IC50 for antiproliferative activity against human paclitaxel-resistant A2780/TAX cells to IC50 for antiproliferative activity against human A2780 cells; assay type: functional
[10] = system: A549; assay: Induction of apoptosis in human A549 cells assessed as cell rounding incubated for 24 hrs […]; assay type: functional, cell-based
[11] = system: A549; assay: Induction of cell death in human A549 cells assessed as increased mitochondrial membrane density at 200 nM for 12 hrs by TEM analysis; assay type: functional, cell-based
[12] = system: HeLa; assay: Antiproliferative activity against human HeLa cells assessed as cell viability incubated for 48 hrs by MTT assay; assay type: functional, cell-based
[13] = system: MCF7; assay: Antiproliferative activity against human MCF7 cells assessed as cell viability incubated for 48 hrs by MTT assay; assay type: functional, cell-based; details: MCF7, 48 h
[14] = target: Tubulin; assay: Inhibition of tubulin polymerization (unknown origin) assessed as fluorescence intensity emission at 410 nm for 60 mins; assay type: protein-complex assay, Homo sapiens
[15] = target: Tubulin; assay: Inhibition of [3H]colchicine binding to tubulin (unknown origin) by competitive binding assay; assay type: protein-complex assay, Homo sapiens
[16] = system: A549; assay: Induction of apoptosis in human A549 cells assessed as chromatin condensation incubated for 24 hrs by CCK-8 assay; assay type: functional, cell-based
[17] = system: A549; assay: Induction of apoptosis in human A549 cells assessed as nucleic fragmentation incubated for 24 hrs by CCK-8 assay; assay type: functional, cell-based
[18] = system: A549; assay: Induction of apoptosis in human A549 cells assessed as apoptotic body formation incubated for 24 hrs […]; assay type: functional, cell-based
[19] = system: A549; assay: Induction of cell death in human A549 cells assessed as vanished mitochondrial cristae at 200 nM for 12 hrs by TEM analysis; assay type: functional, cell-based
[20] = system: A549; assay: Induction of apoptosis in human A549 cells assessed as cell viability pretreated with caspase inhibitor Z-VAD-FMK for 24 hrs followed by incubation with compound at 100 nM and measured after 48 hrs by CCK-8 assay; assay type: functional, cell-based
[21] = system: A549; assay: Induction of apoptosis in human A549 cells assessed as cell viability pretreated with necroptosis inhibitor necrostatin-I for 24 hrs followed by incubation with compound at 100 nM and measured after 48 hrs by CCK-8 assay; assay type: functional, cell-based
[22] = system: A549; assay: Induction of apoptosis in human A549 cells assessed as cell viability pretreated with autophagy inhibitor 3-methyladenine for 24 hrs followed by incubation with compound at 100 nM and measured after 48 hrs by CCK-8 assay; assay type: functional, cell-based
[23] = system: A549; assay: Induction of apoptosis in human A549 cells assessed as cell viability pretreated with ferroptosis inhibitor desferoxamine for 24 hrs followed by incubation with compound at 100 nM and measured after 48 hrs by CCK-8 assay; assay type: functional, cell-based
[24] = system: A549; assay: Induction of apoptosis in human A549 cells assessed as cell viability pretreated with ferroptosis inhibitor ferrostatin-1 for 24 hrs followed by incubation with compound at 100 nM and measured after 48 hrs by CCK-8 assay; assay type: functional, cell-based
[25] = system: A549; assay: Induction of lipid […] accumulation in human A549 cells at 100 nM incubated for 24 hrs by C11-BODIPY-581/591 staining based flow cytometry analysis; assay type: functional, cell-based
[26] = system: A549; assay: Induction of cell death in human A549 cells assessed as increased mitochondrial membrane density at 10 uM for 12 hrs by TEM analysis; assay type: functional, cell-based
[27] = system: A549; assay: Induction of cell death in human A549 cells assessed as vanished mitochondrial cristae at 10 uM for 12 hrs by TEM analysis; assay type: functional, cell-based
[28] = system: A549; assay: Induction of ferroptosis in human A549 cells assessed as depletion of GSH levels at 10 uM upto 12 hrs; assay type: functional, cell-based
[29] = system: A549; assay: In vivo antitumor activity against human A549 cells xenografted in athymic nude BALB/c mouse assessed as tumor weight at 10 mg/kg measured after 30 days (reference value: 1 gram); assay type: functional; details: time 30 day
[30] = system: A549; assay: In vivo antitumor activity against human A549 cells xenografted in athymic nude BALB/c mouse assessed as tumor volume at 10 mg/kg measured after 30 days (reference value: 1503.3 mm^3); assay type: functional; details: time 30 day
[31] = system: A549; assay: In vivo antitumor activity against human A549 cells xenografted in athymic nude BALB/c mouse assessed as tumor growth inhibition at 10 mg/kg measured after 30 days relative to control; assay type: functional; details: A549, 720 h, time 30 day, read-out: TGI
[32] = system: A549; assay: Induction of apoptosis in human A549 cells assessed as cell viability pretreated with caspase inhibitor Z-VAD-FMK for 24 hrs followed by incubation with compound at 200 nM and measured after 48 hrs by CCK-8 assay; assay type: functional, cell-based
[33] = system: A549; assay: Induction of apoptosis in human A549 cells assessed as cell viability pretreated with necroptosis inhibitor necrostatin-I for 24 hrs followed by incubation with compound at 200 nM and measured after 48 hrs by CCK-8 assay; assay type: functional, cell-based
[34] = system: A549; assay: Induction of apoptosis in human A549 cells assessed as cell viability pretreated with autophagy inhibitor 3-methyladenine for 24 hrs followed by incubation with compound at 200 nM and measured after 48 hrs by CCK-8 assay; assay type: functional, cell-based
[35] = system: A549; assay: Induction of apoptosis in human A549 cells assessed as cell viability pretreated with ferroptosis inhibitor desferoxamine for 24 hrs followed by incubation with compound at 200 nM and measured after 48 hrs by CCK-8 assay; assay type: functional, cell-based
[36] = system: A549; assay: Induction of apoptosis in human A549 cells assessed as cell viability pretreated with ferroptosis inhibitor ferrostatin-1 for 24 hrs followed by incubation with compound at 200 nM and measured after 48 hrs by CCK-8 assay; assay type: functional, cell-based
[37] = system: A549; assay: Induction of apoptosis in human A549 cells assessed as early apoptotic cells at 50 nM incubated for 24 hrs by annexin V-FITC/PI staining based flow cytometry analysis; assay type: functional, cell-based

SMILES: CC[C@]1(O)C[C@H]2CN(CCc3c([nH]c4ccccc34)[C@@](C(=O)OC)(c3cc4c(cc3OC)N(C=O)[C@H]3[C@@](O)(C(=O)OC)[C@H](OC(C)=O)[C@]5(CC)C=CCN6CC[C@]43[C@@H]65)C2)C1 [VINCRISTINE]
- Ratio IC50 [1]: 22.46
- IC50 [2]: 60 nM
- IC50 [3]: 30 nM
- IC50 [4]: 350 nM
- IC50 [5]: 560 nM
- Ratio IC50 [6]: 9.33
- IC50 [7]: 7.86 µM
- IC50 [8]: 170 nM
- Ratio IC50 [9]: 5.67

SMILES: COc1ccc(C(=O)c2cc(OC)c(OC)c(OC)c2)cc1O [PHENSTATIN]
- Activity [10]: Active
- Activity [11]: Active
- IC50 [12]: 220 nM
- IC50 [3]: 110 nM
- IC50 [4]: 360 nM
- IC50 [13]: 960 nM
- IC50 [14]: 2940 nM
- IC50 [15]: 3.03 µM
- Activity [16]: Active
- Activity [17]: Active
- Activity [18]: Active
- Activity [19]: Active

SMILES: C=C(c1ccc(OC)cc1NC(=O)CO)c1ccc(OC)c2c1OC(C)(C)C=C2
- IC50 [2]: 40 nM
- IC50 [12]: 40 nM
- IC50 [3]: 40 nM
- IC50 [4]: 130 nM
- IC50 [13]: 100 nM
- Activity [20]: Active
- Activity [21]: Active
- Activity [22]: Active
- Activity [23]: Active
- Activity [24]: Active
- Activity [25]: Active

SMILES: CCOc1ccccc1-n1c(C(C)N2CCN(C(=O)COc3ccc(Cl)cc3)CC2)nc2ccccc2c1=O (centres undefined) [ERASTIN]
- Activity [26]: Active
- Activity [27]: Active
- Activity [28]: Active
- Activity [29]: 0.89 g
- Activity [30]: 1339.4 mm3
- inhibition in vivo at 10 mg/kg [31]: 10.9%

SMILES: C=C(c1cc(OC)c(OC)c(OC)c1)c1ccc(OC)c(O)c1NC(=O)COC
- IC50 [2]: 190 nM
- IC50 [12]: 330 nM
- IC50 [3]: 450 nM
- IC50 [4]: 280 nM
- IC50 [13]: 560 nM
- Activity [32]: Active
- Activity [33]: Active
- Activity [34]: Active
- Activity [35]: Active
- Activity [36]: Active

SMILES: COc1ccc(C(=O)c2cc(OC)c(OC)c(OC)c2)c(NC(=O)CO)c1
- IC50 [2]: 70 nM
- IC50 [12]: 70 nM
- IC50 [3]: 100 nM
- IC50 [4]: 120 nM
- IC50 [13]: 230 nM
- Activity [37]: Active
- Activity [20]: Active
- Activity [21]: Active
- Activity [22]: Active
- Activity [23]: Active
- Activity [24]: Active

SMILES: COc1cccc2c1C(=O)c1c(O)c3c(c(O)c1C2=O)C[C@@](O)(C(=O)CO)C[C@@H]3O[C@H]1C[C@H](N)[C@H](O)[C@H](C)O1 [DOXORUBICIN HYDROCHLORIDE]
- IC50 [3]: 2030 nM
- IC50 [4]: 3980 nM
- IC50 [5]: 12500 nM
- IC50 [7]: 21.6 µM
- IC50 [8]: 2690 nM

SMILES: COc1ccc(C(=O)c2ccc(OC)c3c2OC(C)(C)C=C3)c(NC(=O)CO)c1
- IC50 [2]: 80 nM
- IC50 [12]: 100 nM
- IC50 [3]: 100 nM
- IC50 [4]: 230 nM
- IC50 [13]: 320 nM
- Activity [37]: Active
- Activity [20]: Active
- Activity [21]: Active
- Activity [22]: Active
- Activity [23]: Active
- Activity [24]: Active

SMILES: CC(=O)O[C@H]1C(=O)[C@@]2(C)[C@H]([C@H](OC(=O)c3ccccc3)[C@]3(O)C[C@H](OC(=O)[C@H](O)[C@@H](NC(=O)c4ccccc4)c4ccccc4)C(C)=C1C3(C)C)[C@]1(OC(C)=O)CO[C@@H]1C[C@@H]2O [PACLITAXEL]
- IC50 [2]: 30 nM
- IC50 [4]: 20 nM
- IC50 [5]: 70 nM
- IC50 [7]: 0.13 µM
